In patent US20230203043A1, “NOVEL IMIDAZOPYRAZINE DERIVATIVES” (Hoffmann-La Roche Inc., priority 2020, published 2023):
Structures can show the parent of a compound that is named as a salt. Where two headings read alike, the source gives them in different places.

Tested on: Acinetobacter baumannii ATCC17961
Assay: Antimicrobial susceptibility testing: 90% growth inhibitory concentration (IC90) determination in Iso-Sensitest broth, OD600 growth
Type: cell-based
Details: Acinetobacter baumannii, ATCC17961, 16 h
How it was run: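 Growth monitored at 600 nm every 20 min for 16 h at 35±2 °C, inoculum ~5×10^(5) CFU/ml in Iso-Sensitest medium. Compounds in 10-point twofold series, e.g. 50 to 0.097 μM final; 90% inhibitory concentration taken from log-phase growth.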

[1] = strain ATCC 17961, OD600 growth over 16 h, read-out: A. baumannii ATCC 17961 IC90
[2] = read-out: A. baumannii ATCC 17961 IC90 (uM), strain ATCC 17961, OD600 growth over 16 h

Structure (SMILES) | IC90 [1] | IC90 [2]
Cc1cc(Nc2nccn3c(-c4cn(CC(F)F)nc4C(F)(F)F)cnc23)cc(F)c1C(=O)NCCCCCCN [Example 615, N-(6-aminohexyl)-4-((3-(1-(2,2-difluoroethyl)-3-(trifluoromethyl)-1H-pyrazol-4-yl)imidazo[1,2-a]pyrazin-8-yl)amino)-2-fluoro-6-methylbenzamide] | 0.122 µM | 
CCc1cc(Nc2nccn3c(-c4cn(CC(F)F)nc4C(F)(F)F)cnc23)ccc1C(=O)NCCNC(=O)[C@H](C)N [Example 616, (S)-N-(2-(2-aminopropanamido)ethyl)-4-((3-(1-(2,2-difluoroethyl)-3-(trifluoromethyl)-1H-pyrazol-4-yl)imidazo[1,2-a]pyrazin-8-yl)amino)-2-ethylbenzamide formate] |  | 0.153 µM
CCc1cc(Nc2nccn3c(-c4cn(CCF)nc4C(F)(F)F)cnc23)ccc1C(=O)NCCOCCN1CCCC1 [Example 617, 2-ethyl-4-((3-(1-(2-fluoroethyl)-3-(trifluoromethyl)-1H-pyrazol-4-yl)imidazo[1,2-a]pyrazin-8-yl)amino)-N-(2-(2-(pyrrolidin-1-yl)ethoxy)ethyl) benzamide formate] | 0.125 µM | 
CCc1cc(Nc2nccn3c(-c4cn(CC(F)F)nc4C(F)(F)F)cnc23)ccc1C(=O)NCCOCCCN [Example 618, N-(2-(3-aminopropoxy)ethyl)-4-((3-(1-(2,2-difluoroethyl)-3-(trifluoromethyl)-1H-pyrazol-4-yl)imidazo[1,2-a]pyrazin-8-yl)amino)-2-ethylbenzamide formate] |  | 0.129 µM
CCc1cc(Nc2nccn3c(-c4cn(C5CCC5)nc4C(F)(F)F)cnc23)ccc1C(=O)NCCOCCN1CCCC1 [Example 619, 4-((3-(1-cyclobutyl-3-(trifluoromethyl)-1H-pyrazol-4-yl)imidazo[1,2-a]pyrazin-8-yl)amino)-2-ethyl-N-(2-(2-(pyrrolidin-1-yl)ethoxy)ethyl)benzamide formate] |  | 0.131 µM
CCc1cc(Nc2nccn3c(-c4cn(CC#N)nc4C(F)(F)F)cnc23)ccc1C(=O)NCCNC(=O)CN [Example 620, N-(2-(2-aminoacetamido)ethyl)-4-((3-(1-(cyanomethyl)-3-(trifluoromethyl)-1H-pyrazol-4-yl)imidazo[1,2-a]pyrazin-8-yl)amino)-2-ethylbenzamide formate] |  | 0.139 µM
CCc1cc(Nc2nccn3c(-c4cn(CC(F)F)nc4C(F)(F)F)cnc23)ccc1C(=O)NCCOCCN1CCCC1 [Example 621, 4-((3-(1-(2,2-difluoroethyl)-3-(trifluoromethyl)-1H-pyrazol-4-yl)imidazo[1,2-a]pyrazin-8-yl)amino)-2-ethyl-N-(2-(2-(pyrrolidin-1-yl)ethoxy)ethyl) benzamide formate] | 0.144 µM | 
CCc1cc(Nc2nccn3c(-c4cn(CCOC(F)(F)F)nc4C(F)(F)F)cnc23)ccc1C(=O)NCCOCCN [Example 622, N-(2-(2-aminoethoxy)ethyl)-2-ethyl-4-((3-(1-(2-(trifluoromethoxy)ethyl)-3-(trifluoromethyl)-1H-pyrazol-4-yl)imidazo[1,2-a]pyrazin-8-yl)amino)benzamide] | 0.148 µM | 
CCc1cc(Nc2nccn3c(-c4cn(CC#N)nc4C(F)(F)F)cnc23)ccc1C(=O)NCC1CC1N (stereo not drawn) [Example 623, N-((2-aminocyclopropyl)methyl)-4-((3-(1-(cyanomethyl)-3-(trifluoromethyl)-1H-pyrazol-4-yl)imidazo[1,2-a]pyrazin-8-yl)amino)-2-ethylbenzamide formate] |  | 0.161 µM
CCc1cc(Nc2nccn3c(-c4cn(CC(F)F)nc4C(F)(F)F)cnc23)ccc1C(=O)NCCNC(=O)[C@H]1C[C@@H](N)C1 [Example 624, cis-N-(2-((1s,3s)-3-aminocyclobutane-1-carboxamido)ethyl)-4-((3-(1-(2,2-difluoroethyl)-3-(trifluoromethyl)-1H-pyrazol-4-yl)imidazo[1,2-a]pyrazin-8-yl)amino)-2-ethylbenzamide formate] | 0.19 µM | 
CCc1cc(Nc2nccn3c(-c4cn(CC#N)nc4C(F)(F)F)cnc23)ccc1C(=O)NCCNC(=O)[C@@H](C)N [Example 625, (R)-N-(2-(2-aminopropanamido)ethyl)-4-((3-(1-(cyanomethyl)-3-(trifluoromethyl)-1H-pyrazol-4-yl)imidazo[1,2-a]pyrazin-8-yl)amino)-2-ethylbenzamide formate] |  | 0.176 µM
CCc1cc(Nc2nccn3c(-c4cn(CC#N)nc4C(F)(F)F)cnc23)ccc1C(=O)NCCCNC(=O)[C@@H](C)N [Example 626, (R)-N-(3-(2-aminopropanamido)propyl)-4-((3-(1-(cyanomethyl)-3-(trifluoromethyl)-1H-pyrazol-4-yl)imidazo[1,2-a]pyrazin-8-yl)amino)-2-ethylbenzamide formate] |  | 0.233 µM
CCc1cc(Nc2nccn3c(-c4cn(CC(F)F)nc4C(F)(F)F)cnc23)ccc1C(=O)NCCCNC(=O)[C@@H]1CCCN1 [Example 627, (S)-N-(3-(4-((3-(1-(2,2-difluoroethyl)-3-(trifluoromethyl)-1H-pyrazol-4-yl)imidazo[1,2-a]pyrazin-8-yl)amino)-2-ethylbenzamido)propyl) pyrrolidine-2-carboxamide] | 0.19 µM | 
CCc1cc(Nc2nccn3c(-c4cn(CC(F)F)nc4C(F)(F)F)cnc23)ccc1C(=O)NCCCNC(=O)[C@H](C)N [Example 628, (S)-N-(3-(2-aminopropanamido)propyl)-4-((3-(1-(2,2-difluoroethyl)-3-(trifluoromethyl)-1H-pyrazol-4-yl)imidazo[1,2-a]pyrazin-8-yl)amino)-2-ethylbenzamide formate] |  | 0.195 µM
C=CCn1cc(-c2cnc3c(Nc4cc(C)c(C(=O)N5CCN(C(=O)[C@H]6CC[C@H](O)N6)CC5)c(F)c4)nccn23)c(C(F)(F)F)n1 [Example 629, (4-(4-((3-(1-allyl-3-(trifluoromethyl)-1H-pyrazol-4-yl)imidazo[1,2-a]pyrazin-8-yl)amino)-2-fluoro-6-methylbenzoyl)piperazin-1-yl)((2R,5S)-5-hydroxypyrrolidin-2-yl)methanone] | 0.198 µM | 
CCc1cc(Nc2nccn3c(-c4cn(CC(F)F)nc4C(F)(F)F)cnc23)ccc1C(=O)NCCCNC(=O)CCN [Example 630, N-(3-(3-aminopropanamido)propyl)-4-((3-(1-(2,2-difluoroethyl)-3-(trifluoromethyl)-1H-pyrazol-4-yl)imidazo[1,2-a]pyrazin-8-yl)amino)-2-ethylbenzamide formate] |  | 0.206 µM
CCc1cc(Nc2nccn3c(-c4c[nH]nc4C(F)(F)F)cnc23)ccc1C(=O)NCCCNC(=O)N1CC[C@@H](N)C1 [Example 631, (R)-3-amino-N-(3-(2-ethyl-4-((3-(3-(trifluoromethyl)-1H-pyrazol-4-yl)imidazo[1,2-a]pyrazin-8-yl)amino)benzamido)propyl) pyrrolidine-1-carboxamide] | 0.209 µM | 
CCc1cc(Nc2nccn3c(-c4cn(CC(F)F)nc4C(F)(F)F)cnc23)ccc1C(=O)NCCCNC(=O)N1CC[C@@H](N)C1 [Example 632, (R)-3-amino-N-(3-(4-((3-(1-(2,2-difluoroethyl)-3-(trifluoromethyl)-1H-pyrazol-4-yl)imidazo[1,2-a]pyrazin-8-yl)amino)-2-ethylbenzamido)propyl) pyrrolidine-1-carboxamide formate] | 0.209 µM | 
CCc1cc(Nc2nccn3c(-c4cn(CC(F)F)nc4C(F)(F)F)cnc23)ccc1C(=O)NCCCNC(=O)[C@@H](C)N [Example 633, (R)-N-(3-(2-aminopropanamido)propyl)-4-((3-(1-(2,2-difluoroethyl)-3-(trifluoromethyl)-1H-pyrazol-4-yl)imidazo[1,2-a]pyrazin-8-yl)amino)-2-ethylbenzamide formate] |  | 0.214 µM
CCc1cc(Nc2nccn3c(-c4c[nH]nc4C(F)(F)F)cnc23)ccc1C(=O)NCCCNC(=O)[C@@H]1CCCN1 [Example 634, (S)-N-(3-(2-ethyl-4-((3-(3-(trifluoromethyl)-1H-pyrazol-4-yl)imidazo[1,2-a]pyrazin-8-yl)amino)benzamido)propyl) pyrrolidine-2-carboxamide] | 0.218 µM | 
O=C(c1ccc(Nc2nccn3c(-c4cn(CC(F)F)nc4C(F)(F)F)cnc23)cc1Cl)N1CC2(C1)CN(C(=O)[C@@H]1CCCN1)C2 [Example 635, (S)-(2-chloro-4-((3-(1-(2,2-difluoroethyl)-3-(trifluoromethyl)-1H-pyrazol-4-yl)imidazo[1,2-a]pyrazin-8-yl)amino)phenyl)(6-prolyl-2,6-diazaspiro [3.3]heptan-2-yl)methanone] | 0.22 µM | 
N#CCn1cc(-c2cnc3c(Nc4ccc(C(=O)N5CC6(C5)CN(C(=O)[C@@H]5CCCN5)C6)c(Cl)c4)nccn23)c(C(F)(F)F)n1 [Example 636, (S)-2-(4-(8-((3-chloro-4-(6-prolyl-2,6-diazaspiro[3.3]heptane-2-carbonyl)phenyl)amino)imidazo[1,2-a]pyrazin-3-yl)-3-(trifluoromethyl)-1H-pyrazol-1-yl)acetonitrile] | 0.222 µM | 
CCc1cc(Nc2nccn3c(-c4cn(CC#N)nc4C(F)(F)F)cnc23)ccc1C(=O)NCCNC(=O)[C@@H]1C[C@@H](O)CN1 [Example 637, (2S,4R)-N-(2-(4-((3-(1-(cyanomethyl)-3-(trifluoromethyl)-1H-pyrazol-4-yl)imidazo[1,2-a]pyrazin-8-yl)amino)-2-ethylbenzamido)ethyl)-4-hydroxypyrrolidine-2-carboxamide] | 0.226 µM | 
CCc1cc(Nc2nccn3c(-c4cn(CC(F)F)nc4C(F)(F)F)cnc23)ccc1C(=O)NCC(=O)N[C@H]1CCNC1 [Example 638, 4-[[3-[1-(2,2-difluoroethyl)-3-(trifluoromethyl)pyrazol-4-yl]imidazo[1,2-a]pyrazin-8-yl]amino]-2-ethyl-N-[2-oxo-2-[[(3S)-pyrrolidin-3-yl]amino]ethyl] benzamide formate] | 0.226 µM | 
